Paper PMC6615261, “Repurposing Azithromycin and Rifampicin Against Gram-Negative Pathogens by Combination With Peptidomimetics” (Frontiers in Cellular and Infection Microbiology, 2019)
Where two headings read alike, the source gives them in different places.

Legend:
[1] = test system: P. aeruginosa clinical isolates and reference strains; assay: MIC of fixed-ratio peptidomimetic 1-antibiotic combinations in clinical isolates and reference strains; format: cell-based, Pseudomonas aeruginosa; details: with 1–8 μM of 1
Source text: (§1) Bacterial strains used in this study comprise MDR clinical isolates of E. coli ST131 (Cerquetti et al., [2010]) and K. pneumoniae ST258 (Jana et al., [2017]), and American type culture collection (ATCC) strains: ATCC 25922 (E. coli), ATCC 13883 (K. pneumoniae), and ATCC 27853 (P. aeruginosa). Additional clinical isolates of E. coli, K. pneumoniae, and P. aeruginosa resistant to β-lactams (including carbapenems and cephalosporins) were provided by Laurent Poirel, Université de Fribourg, Switzerland. The following growth media was routinely used for bacterial culturing: Luria-Burtani (LB), cation-adjusted Mueller-Hinton agar (MHA) and broth (MHB II). All assays were performed in cation-adjusted MHA or MHB II. Antibiotics were purchased from Sigma-Aldrich and the peptidomimetic collection (Table S1) was curated and provided by Henrik Franzyk. […]
(§2) Minimal inhibitory concentrations (MICs) of peptidomimetics, antibiotics and their combinations were determined by broth microdilution according to the Clinical Laboratory Standards Institute performance standards (Clinical and Laboratory Standards Institute, [2013]). […] Potentiation of additional antibiotics by peptidomimetics was determined by using commercial 96-well plates containing varied concentrations of standard antibiotics (COMPAN1F; Trek Diagnostic Systems Inc.). The peptidomimetics were added immediately prior to inoculation with pathogen, and then MICs were determined as above. The MICs of peptidomimetic/antibiotic combinations were determined according to the method above, and the concentration ratios were selected based upon checkerboard results with 2:1 and 1:4 ratio of peptidomimetic with rifampicin or azithromycin, respectively. Minimal bactericidal concentrations (MBCs) were determined by using growth-curve assay plates. […] Growth was recorded at 10 min intervals as optical density (OD) at 600 nm during 24 h. […]

[2] = test system: E. coli clinical isolates and reference strains; assay: as above; format: cell-based, Escherichia coli; details: in combination with 0.5–1 μM peptidomimetic 1
Source text: as §1, §2

[3] = test system: P. aeruginosa ATCC 27853
Protocol: (§3) The potential synergistic effects in peptidomimetic-antibiotic combinations were assessed by using a two-dimensional checkerboard assay (Garcia, [2010]). Briefly, twofold dilutions of peptide and antibiotic were prepared in MBH II media along the X- and Y-axis, respectively, in 96-well plates. The inoculum was added to the plates, and subsequently these were incubated for 18–20 h. All steps for inoculum preparation and broth microdilution were in accordance with the CLSI guidelines (Clinical and Laboratory Standards Institute, [2013]). The fractional inhibitory concentration index (FICI) was calculated as [MICA(A+B)/MICA(alone)] + [MICB(A+B)/MICB(alone)], where MICA(A+B) represents the MIC of antibiotic (A) in combination with peptidomimetic (B), while MICB(A+B) represents the MIC of peptidomimetic (B) in combination with antibiotic (A). MICA(alone) and MICB(alone) represent the MIC of each compound individually. FICI values of ≤0.5 were interpreted as synergy.

[4] = test system: E. coli ST131
Protocol: as §3

[5] = test system: K. pneumoniae ST258
Protocol: as §3

[6] = test system: E. coli ST131; details: E. coli ST131; growth-curve assay
Protocol: (§4) Minimal inhibitory concentrations (MICs) of peptidomimetics, antibiotics and their combinations were determined by broth microdilution according to the Clinical Laboratory Standards Institute performance standards (Clinical and Laboratory Standards Institute, [2013]). […] Since rifampicin and azithromycin mainly are used to treat infections with Gram-positive pathogens only CLSI clinical breakpoints were available for such bacteria. […] Potentiation of additional antibiotics by peptidomimetics was determined by using commercial 96-well plates containing varied concentrations of standard antibiotics (COMPAN1F; Trek Diagnostic Systems Inc.). The peptidomimetics were added immediately prior to inoculation with pathogen, and then MICs were determined as above. The MICs of peptidomimetic/antibiotic combinations were determined according to the method above, and the concentration ratios were selected based upon checkerboard results with 2:1 and 1:4 ratio of peptidomimetic with rifampicin or azithromycin, respectively. Minimal bactericidal concentrations (MBCs) were determined by using growth-curve assay plates. MIC plates were prepared as above, and then the plates were incubated at 37°C with continuous shaking. Growth was recorded at 10 min intervals as optical density (OD) at 600 nm during 24 h. At 24 h, for wells without growth, a sample was diluted 10-fold in sterile saline (0.9% sodium chloride) and plated onto MHA, following CLSI guidelines (Clinical and Laboratory Standards Institute, [1999]).

[7] = test system: K. pneumoniae ST258; details: K. pneumoniae ST258; growth-curve assay
Protocol: as §4

[8] = test system: P. aeruginosa ATTC 27853; details: P. aeruginosa ATTC 27853; growth-curve assay
Protocol: as §4

[9] = test system: MDR E. coli ST131; assay: Screening of peptidomimetic-antibiotic combinations (growth / growth inhibition); format: cell-based, Escherichia coli; parameters: key to Growth in combination with RIF / Growth in combination with AZM: Growth (+); growth inhibition (–)
Protocol: as §4

[10] = test system: K. pneumoniae ST258; assay: as above; format: cell-based, Klebsiella pneumoniae; parameters: key to Growth in combination with RIF / Growth in combination with AZM: Growth (+); growth inhibition (–)
Protocol: as §4

[11] = test system: P. aeruginosa ATCC 27853; assay: MIC by broth microdilution; format: cell-based, Pseudomonas aeruginosa
Protocol: as §4

[12] = MTS/PMS cell viability assay; format: cell-based, mouse; details: mouse, NIH 3T3 fibroblasts, 1 h exposure, read-out: Cytotoxicity NIH 3T3 EC50 ± SD
Protocol: (§5) NIH 3T3 and HepG2 cells (both from ATCC, Manassas, VA, USA) were cultured in flat-bottomed 96-well MicroWell™ plates (NUNC, Roskilde, Denmark) at seeding densities of ~23,000 and ~22,000 cells/well, respectively, and then cultured for 22–24 h under standard culturing conditions (37°C, 5% CO2, humidified air) to reach 80–90% confluence. NIH 3T3 were cultured in Dulbecco's modified Eagle's medium (DMEM) supplemented with 10% (v/v) newborn-calf serum (NCS) (Gibco, Paisly, UK), while HepG2 were cultured in Eagle's minimum essential medium (EMEM) supplemented with 10% (v/v) fetal bovine serum (FBS, Gibco, Paisly, UK), sodium pyruvate (1 mM), and non-essential amino acids (1%, v/v). Both culturing media were further supplemented with penicillin (100 U/mL), streptomycin (100 μg/mL), and L-glutamine (2 mM).
(§6) Effect on cell viability was determined in NIH 3T3 fibroblasts and HepG2 hepatocytes by using the MTS/PMS assay measuring metabolic activity. Briefly, the adhered cells were washed with 37°C Hanks' balanced salt solution (HBSS from Sigma-Aldrich, St. Louis, MO, USA), containing 10 mM HEPES (AppliChem, Darmstadt, Germany), and adjusted to pH 7.4, and were then exposed for 1 h to 100 μL of test compound(s) dissolved in the appropriate culturing medium without serum for each cell line. After exposure the cells were washed with HBSS containing 10 mM HEPES (pH 7.4) and 100 μL of an MTS/PMS solution, consisting of 240 μg/mL MTS (Promega, Madison, WI, USA) and 2.4 μg/mL PMS (SigmaAldrich, Buchs, Switzerland) in HBSS, was added to the cells, which then were incubated for 1 h at 37°C with horizontal shaking under light protection. Absorbance was measured at 492 nm by using a POLARstar OPTIMA plate reader (BMG Labtech, Offenburg, Germany). The relative viability was calculated according to Equation (1) with absorbance values obtained after incubation of cells with test compound; incubation with SDS (0.2%, w/v in medium) defined 100% cell death (Abspos), while the absorbance of cells incubated with medium defined 0% cell death (Absneg).
(§7) (1) Relative viability(%)=(Abssample-Abspos)/(Absneg-Abspos)×100%
(§8) EC50 values were calculated by using GraphPad Prism 7 (GraphPad Software, La Jolla, CA, USA) via fitting of the relative cell viability to the concentration of the test compound by using Equation (2):
(§9) (2) Relative viability(%)= Top-Bottom/1+10^(LogIC50-Log[peptidomimetic]) ×Hill slope
(§10) With top and bottom representing the mean highest and lowest observed values, respectively. The Hill slope represents a factor for the steepness of the linear part of the curve. In order to prevent erroneous calculation, the top and bottom values were constrained to 100 and 0%, respectively. Data were collected from technical triplicates. The selectivity index was calculated as the average effect on cell viability (EC50 values for HepG2 and NIH 3T3 cells) divided by the MIC.

[13] = MTS/PMS cell viability assay; format: cell-based; details: human, HepG2 hepatocytes, 1 h exposure, read-out: Cytotoxicity HepG2 EC50 ± SD
Protocol: as §5, §6, §7, §8, §9, §10

[14] = test system: NIH 3T3 and HepG2 cells; assay: Effect on viability of mammalian cells (both cell lines); format: cell-based, mouse and human
Protocol: as §5, §6, §7, §8, §9
With top and bottom representing the mean highest and lowest observed values, respectively. The Hill slope represents a factor for the steepness of the linear part of the curve. […] The selectivity index was calculated as the average effect on cell viability (EC50 values for HepG2 and NIH 3T3 cells) divided by the MIC.

[15] = test system: E. coli ST131; assay: MIC by broth microdilution; format: cell-based, Escherichia coli
Protocol: as §4

[16] = test system: K. pneumoniae ST258; assay: MIC by broth microdilution; format: cell-based, Klebsiella pneumoniae
Protocol: as §4

[17] = P. aeruginosa ATCC 27853, checkerboard
[18] = 0.5 μM peptidomimetic + 0.5 μg/mL rifampicin
[19] = peptidomimetic 0.5 μM + azithromycin 1 μg/mL
[20] = peptidomimetic 0.5 μM + rifampicin 0.5 μg/mL
[21] = average of EC50 (HepG2, NIH 3T3) divided by MIC
[22] = MIC of azithromycin combined with the labelled peptidomimetic
[23] = MIC of rifampicin combined with the labelled peptidomimetic

CC[C@H]1OC(=O)[C@H](C)[C@@H](O[C@H]2C[C@@](C)(OC)[C@@H](O)[C@H](C)O2)[C@H](C)[C@@H](O[C@@H]2O[C@H](C)C[C@H](N(C)C)[C@H]2O)[C@](C)(O)C[C@@H](C)CN(C)[C@H](C)[C@@H](O)[C@]1(C)O [Azithromycin, azithromycin]
MIC of antibiotic in combination, P. aeruginosa isolates (typical) [1]: 4 to 8 µg/mL | Antibiotic concentration to which most E. coli isolates proved susceptible in combination [2]: 2 to 4 µg/mL | Antibiotic MIC alone [3, 17]: >128 µg/mL | Antibiotic MIC alone ([4]; checkerboard): 8 µg/mL | Antibiotic MIC alone ([5]; checkerboard): 32 µg/mL | MBC (antibiotic alone) [6]: >16 µg/mL | MIC (antibiotic alone) [6]: 8 µg/mL | MBC (antibiotic alone) [7]: >32 µg/mL | MIC (antibiotic alone) [7]: >32 µg/mL | MBC (antibiotic alone) [8]: >128 µg/mL | MIC (antibiotic alone) [8]: >128 µg/mL

C[C@@H](c1ccccc1)N(CCC(N)=O)C(=O)[C@H](CCCCNC(=N)N)NC(=O)CCN(C(=O)[C@H](CCCCN)NC(=O)CCN(C(=O)[C@H](CCCCNC(=N)N)NC(=O)CCN(C(=O)[C@H](CCCCN)NC(=O)CCN(C(=O)[C@H](CCCCNC(=N)N)NC(=O)CCN(C(=O)[C@H](CCCCN)NC(=O)CNCCCNCCCCNCCCN)[C@@H](C)c1ccccc1)[C@@H](C)c1ccccc1)[C@@H](C)c1ccccc1)[C@@H](C)c1ccccc1)[C@@H](C)c1ccccc1 [Peptidomimetic 26, Spermine-(Lys-βNspe-hArg-βNspe)3-NH2]
Screening result with rifampicin [9, 18]: inhibit growth | Growth in combination with AZM [9, 19]: – | Growth in combination with RIF [9, 20]: – | Screening result with rifampicin [10, 18]: inhibit growth | Growth in combination with AZM [10, 19]: + | Growth in combination with RIF [10, 20]: – | Selectivity Index (SI) P. aeruginosa ATCC 27853 [11, 21]: (28) | MIC P. aeruginosa ATCC 27853 ([11]; peptidomimetic alone): 2 µM | EC50 at 1 h [12]: 53.2 ± 2.94 µM | Antibiotic MIC in combination (AZM) ([3]; P. aeruginosa ATCC 27853, MIC of azithromycin combined with the labelled peptidomimetic): 0.5 µg/mL | Antibiotic MIC in combination (RIF) ([3]; P. aeruginosa ATCC 27853, MIC of rifampicin combined with the labelled peptidomimetic): 0.06 µg/mL | Peptidomimetic MIC alone [3, 17]: 2 µM | Peptidomimetic MIC in combination ([3]; P. aeruginosa ATCC 27853, combined with AZM): 1 µM | Peptidomimetic MIC in combination ([3]; P. aeruginosa ATCC 27853, combined with RIF): 0.5 µM | Reduction of the MIC of azithromycin ([3]; P. aeruginosa, sub-MIC concentrations of peptidomimetic): 32- to 512 fold | Antibiotic MIC in combination (AZM) [4, 22]: 1 µg/mL | Antibiotic MIC in combination (RIF) [4, 23]: 0.5 µg/mL | Peptidomimetic MIC alone ([4]; checkerboard): 1 µM | Peptidomimetic MIC in combination ([4]; combined with AZM): 0.25 µM | Peptidomimetic MIC in combination ([4]; combined with RIF): 0.25 µM | Antibiotic MIC in combination (CLI) ([5]; MIC of CLI combined with the labelled peptidomimetic): 4 µg/mL | Antibiotic MIC in combination (AZM) [5, 22]: 8 µg/mL | Antibiotic MIC in combination (RIF) [5, 23]: 0.06 µg/mL | Peptidomimetic MIC alone ([5]; checkerboard): 8 µM | Peptidomimetic MIC in combination ([5]; combined with AZM): 0.5 µM | Peptidomimetic MIC in combination ([5]; combined with CLI): 0.5 µM | Peptidomimetic MIC in combination ([5]; combined with RIF): 0.5 µM | EC50 at 1 h [13]: 59.6 ± 0.71 µM | EC50 [14]: 50 to 60 µM | Selectivity Index (SI) E. coli ST131 [15, 21]: (56) | MIC E. coli ST131 ([15]; peptidomimetic alone): 1 µM | Selectivity Index (SI) K. pneumoniae ST258 [16, 21]: (7) | MIC K. pneumoniae ST258 ([16]; peptidomimetic alone): 8 µM
